Experimental data as given in patent publication US20250026752A1, “POSITIVE ALLOSTERIC MODULATORS OF THE MUSCARINIC ACETYLCHOLINE RECEPTOR M4” (Vanderbilt University, priority 2021, published 2025).

Molecular target: T1, human mAChR M4 (Homo sapiens, UniProt P08173)
T1 construct: expressed in transfected cells; host or cells: CHO-K1 (ATCC), stably expressing hM4 and Gqi5
T1 sequence (P08173 1-479): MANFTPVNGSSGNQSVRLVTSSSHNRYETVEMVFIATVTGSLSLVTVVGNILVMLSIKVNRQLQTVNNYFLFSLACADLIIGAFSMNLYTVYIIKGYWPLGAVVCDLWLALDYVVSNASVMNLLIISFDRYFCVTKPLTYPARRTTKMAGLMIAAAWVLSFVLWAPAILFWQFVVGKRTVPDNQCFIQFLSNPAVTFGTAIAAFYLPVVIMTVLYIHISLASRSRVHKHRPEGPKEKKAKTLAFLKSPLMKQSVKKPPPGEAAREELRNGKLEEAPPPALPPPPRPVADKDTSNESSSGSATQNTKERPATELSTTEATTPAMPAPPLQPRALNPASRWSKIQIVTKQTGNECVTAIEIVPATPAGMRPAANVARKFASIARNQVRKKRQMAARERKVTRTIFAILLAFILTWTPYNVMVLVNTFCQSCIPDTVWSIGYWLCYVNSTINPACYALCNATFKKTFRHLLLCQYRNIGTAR
Assay: mAChR M4 cell-based functional assay: calcium flux (Fluo-4, FDSS), positive allosteric modulator activity on the EC20 acetylcholine response, hM4-Gqi5 CHO-K1 cells
Conditions: for Emax at 30 µM: CHO-K1, human M4, % ACh maximum at 30 μM; for EC50: human M4, PAM activity on EC20 acetylcholine response, calcium flux, read-out: Human M4 EC50
Summary of the method: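 Potentiation was taken as the concentration-dependent rise in the EC20 acetylcholine calcium response, fitted by a four-parameter logistic with EC20 as baseline. Fluo-4-loaded hM4-Gqi5 CHO-K1 cells received 11-point, threefold-diluted compound before acetylcholine at 144 s; FDSS read at 1 Hz.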

Emax at 30 µM | EC50 | SMILES
75% | 440 nM | Cc1ccc2nc(NC3CCOC3)nc(N3CCc4ncc(C(F)(F)F)cc4C3)c2c1 (centres unmarked) [Compound 207, 6-methyl-N-tetrahydrofuran-3-yl-4-[3-(trifluoromethyl)-7,8-dihydro-5H-1,6-naphthyridin-6-yl]quinazolin-2-amine]
76% | 390 nM | Cc1ccc2nc(NCC(C)(C)O)nc(N3CCc4ncc(C(F)(F)F)cc4C3)c2c1 [Compound 208, 2-methyl-1-[[6-methyl-4-[3-(trifluoromethyl)-7,8-dihydro-5H-1,6-naphthyridin-6-yl]quinazolin-2-yl]amino]propan-2-ol]
50% | > 10000 nM | Fc1cc2c(N3CCc4ncc(C(F)(F)F)cc4C3)nc(N3CCOCC3)nc2cc1Cl [Compound 209, 4-[7-chloro-6-fluoro-4-[3-(trifluoromethyl)-7,8-dihydro-5H-1,6-naphthyridin-6-yl]quinazolin-2-yl]morpholine]
81% | 240 nM | Cn1nccc1Nc1cnc2c(c1)CN(c1nc(N3CCCC3)nc3ccc(F)cc13)CC2 [Compound 210, 6-(6-fluoro-2-pyrrolidin-1-yl-quinazolin-4-yl)-N-(2-methylpyrazol-3-yl)-7,8-dihydro-5H-1,6-naphthyridin-3-amine]
80% | 470 nM | CN1CCN(c2nc(N3CCc4ncc(Nc5ccnn5C)cc4C3)c3cc(F)ccc3n2)CC1 [Compound 211, 6-[6-fluoro-2-(4-methylpiperazin-1-yl)quinazolin-4-yl]-N-(2-methylpyrazol-3-yl)-7,8-dihydro-5H-1,6-naphthyridin-3-amine]
90% | 190 nM | Cn1nccc1Nc1cnc2c(c1)CN(c1nc(NCC(C)(C)O)nc3ccc(F)cc13)CC2 [Compound 212, 1-[[6-fluoro-4-[3-[(2-methylpyrazol-3-yl)amino]-7,8-dihydro-5H-1,6-naphthyridin-6-yl]quinazolin-2-yl]amino]-2-methyl-propan-2-ol]
86% | 490 nM | Cn1nccc1Nc1cnc2c(c1)CN(c1nc(NC3CCCOC3)nc3ccc(F)cc13)CC2 (centres unmarked) [Compound 213, 6-fluoro-4-[3-[(2-methylpyrazol-3-yl)amino]-7,8-dihydro-5H-1,6-naphthyridin-6-yl]-N-tetrahydropyran-3-yl-quinazolin-2-amine]
70% | 830 nM | Cn1nccc1Nc1cnc2c(c1)CN(c1nc(N3CCOC(C)(C)C3)nc3ccc(F)cc13)CC2 [Compound 214, 6-[2-(2,2-dimethylmorpholin-4-yl)-6-fluoro-quinazolin-4-yl]-N-(2-methylpyrazol-3-yl)-7,8-dihydro-5H-1,6-naphthyridin-3-amine]
107% | 1610 nM | FC(F)(F)c1ccc2ncnc(N3CCc4ncc(N5CCOc6ncccc65)cc4C3)c2c1 [Compound 215, 1-(6-(6-(trifluoromethyl)quinazolin-4-yl)-5,6,7,8-tetrahydro-1,6-naphthyridin-3-yl)-2,3-dihydro-1H-pyrido[2,3-b][1,4]oxazine]
81% | 1050 nM | Fc1ccc2ncnc(N3CCc4ncc(N5CCO[C@H](c6ccccc6)C5)cc4C3)c2c1 [Compound 216, (R)-4-(6-(6-fluoroquinazolin-4-yl)-5,6,7,8-tetrahydro-1,6-naphthyridin-3-yl)-2-phenylmorpholine]
84% | 1700 nM | Cc1nc(N2CCc3ncc(N4CCO[C@H](c5ccccc5)C4)cc3C2)c2cc(F)ccc2n1 [Compound 217, (R)-4-(6-(6-fluoro-2-methylquinazolin-4-yl)-5,6,7,8-tetrahydro-1,6-naphthyridin-3-yl)-2-phenylmorpholine]
73% | 570 nM | Cc1nn(-c2cnc3c(c2)CN(c2ncnc4ccc(F)cc24)CC3)c2cccnc12 [Compound 218, 6-fluoro-4-(3-(3-methyl-1H-pyrazolo[4,3-b]pyridin-1-yl)-7,8-dihydro-1,6-naphthyridin-6(5H)-yl)quinazoline]
59% | 1950 nM | Fc1ccc2ncnc(N3CCc4ncc(N5CCO[C@@H](c6ccccc6)C5)cc4C3)c2c1 [Compound 220, (S)-4-(6-(6-fluoroquinazolin-4-yl)-5,6,7,8-tetrahydro-1,6-naphthyridin-3-yl)-2-phenylmorpholine]
44% | 1490 nM | COc1ccc2nc(O)nc(N3CCc4ncc(C(F)(F)F)cc4C3)c2c1 [Compound 221, 6-methoxy-4-(3-(trifluoromethyl)-7,8-dihydro-1,6-naphthyiridin-6(5H)-yl)quinazolin-2-ol]
50% | 3470 nM | Cc1nc(N2CCc3ncc(N4CCO[C@@H](c5ccccc5)C4)cc3C2)c2cc(F)ccc2n1 [Compound 222, (S)-4-(6-(6-fluoro-2-methylquinazolin-4-yl)-5,6,7,8-tetrahydro-1,6-naphthyridin-3-yl)-2-phenylmorpholine]
65% | 670 nM | Fc1ccc2ncnc(N3CCc4ncc(N5CCOC(c6ccccn6)C5)cc4C3)c2c1 (centres unmarked) [Compound 223, 4-(6-(6-fluoroquinazolin-4-yl)-5,6,7,8-tetrahydro-1,6-naphthyridin-3-yl)-2-(pyridin-2-yl)morpholine]
72% | 930 nM | Cc1nc(N2CCc3ncc(N4CCOC(c5ccccn5)C4)cc3C2)c2cc(F)ccc2n1 (centres unmarked) [Compound 224, 4-(6-(6-fluoro-2-methylquinazolin-4-yl)-5,6,7,8-tetrahydro-1,6-naphthyridin-3-yl)-2-(pyridin-2-yl)morpholine]
94% | 70 nM | CC1CN(c2cnc3c(c2)CN(c2ncnc4ccc(F)cc24)CC3)c2ccnn2C1 (centres unmarked) [Compound 225, 6-fluoro-4-(3-(6-methyl-6,7-dihydropyrazolo[1,5-a]pyrimidin-4(5H)-yl)-7,8-dihydro-1,6-naphthyridin-6(5H)-yl)quinazoline]
103% | 60 nM | Cc1cc2n(n1)CCCN2c1cnc2c(c1)CN(c1ncnc3ccc(F)cc13)CC2 [Compound 226, 6-fluoro-4-(3-(2-methyl-6,7-dihydropyrazolo[1,5-a]pyrimidin-4(5H)-yl)-7,8-dihydro-1,6-naphthyridin-6(5H)-yl)quinazoline]
75% | 80 nM | CC1CCN(c2cnc3c(c2)CN(c2ncnc4ccc(F)cc24)CC3)c2ccnn21 (centres unmarked) [Compound 227, 6-fluoro-4-(3-(7-methyl-6,7-dihydropyrazolo[1,5-a]pyrimidin-4(5H)-yl)-7,8-dihydro-1,6-naphthyridin-6(5H)-yl)quinazoline]
97% | 40 nM | [2H]c1nc2c(cc1N1CCOC(C)(C)C1)CN(c1ncnc3ccc(F)cc13)CC2 [Compound 228, 4-(6-(6-fluoroquinazolin-4-yl)-5,6,7,8-tetrahydro-1,6-naphthyridin-3-yl-2-d)-2,2-dimethylmorpholine]
86% | 510 nM | Fc1ccc2ncnc(N3CCc4ncc(N5CCOC(c6cccnc6)C5)cc4C3)c2c1 (centres unmarked) [Compound 229, 4-(6-(6-fluoroquinazolin-4-yl)-5,6,7,8-tetrahydro-1,6-naphthyridin-3-yl)-2-(pyridin-3-yl)morpholine]
86% | 500 nM | Cc1nc(N2CCc3ncc(N4CCOC(c5cccnc5)C4)cc3C2)c2cc(F)ccc2n1 (centres unmarked) [Compound 230, 4-(6-(6-fluoro-2-methylquinazolin-4-yl)-5,6,7,8-tetrahydro-1,6-naphthyridin-3-yl)-2-(pyridin-3-yl)morpholine]
92% | 50 nM | Clc1ccc2ncnc(N3CCc4ncc(C5CC5)cc4C3)c2c1 [Compound 231, 6-chloro-4-(3-cyclopropyl-7,8-dihydro-1,6-naphthyridin-6(5H)-yl)quinazoline]
77% | 740 nM | Fc1ccccc1Oc1cnc2c(c1)CN(c1ncnc3ccc(Cl)cc13)CC2 [Compound 232, 6-chloro-4-(3-(2-fluorophenoxy)-7,8-dihydro-1,6-naphthyridin-6(5H)-yl)quinazoline]
84% | 410 nM | CC1CN(c2ncnc3ccc(F)cc23)Cc2cc(NC3CCCC3)cnc21 (centres unmarked) [Compound 233, N-cyclopentyl-6-(6-fluoroquinazolin-4-yl)-8-methyl-5,6,7,8-tetrahydro-1,6-naphthyridin-3-amine]
86% | 110 nM | CC1CN(c2ncnc3ccc(F)cc23)Cc2cc(Nc3cccnc3)cnc21 (centres unmarked) [Compound 234, 6-(6-fluoroquinazolin-4-yl)-8-methyl-N-(pyridin-3-yl)-5,6,7,8-tetrahydro-1,6-naphthyridin-3-amine]

SMILES | Emax at 30 µM | EC50
Cc1nc2c(cc1N1CCOC(C)(C)C1)CN(c1ncnc3ccc(F)cc13)CC2 [Compound 219, 4-(6-(6-fluoroquinazolin-4-yl)-2-methyl-5,6,7,8-tetrahydro-1,6-naphthyridin-3-yl)-2,2-dimethylmorpholine] | 60% | 1370 nM
